Results on two compounds are retold here after patent US20250064763A1, “METHODS OF TREATMENT OF PRIMARY BILIARY CHOLANGITIS” (Ipsen Pharma, priority 2023, published 2025).

In one series the test system is patients with PBC. The note with it: cited from earlier work.
In the next series the test system is subjects with PBC. Briefly: Clinical study of elafibranor, biochemical markers in plasma. The note with it: human, in vivo.

`CC[C@H]1[C@@H](O)[C@@H]2[C@H](CC[C@]3(C)[C@@H]([C@H](C)CCC(=O)O)CC[C@@H]23)[C@@]2(C)CC[C@@H](O)C[C@@H]12` [OCA, obeticholic acid]: in the series on patients with PBC (phase III study, OCA groups compared to placebo), the effect on pruritus result is on record as “exacerbate pruritus”. Besides, the liver injury entry with patients with PBC (post marketing reports, PBC patients with compensated or decompensated cirrhosis) was “led to hepatic decompensation and liver failure”.
Consider `CSc1ccc(C(=O)/C=C/c2cc(C)c(OC(C)(C)C(=O)O)c(C)c2)cc1` [elafibranor], for which the “biochemical markers in the plasma” value with subjects with PBC is listed as “relevant reduction”.
